Laboratory results reported in US20100035755A1, “METHOD OF CONTROLLING WEEDS IN A TURF GRASS BY USING SULFONYLUREA COMPOUNDS” (Moghu Research Center Ltd., priority 2008, published 2010).
“Also recorded” adds a separate entry of the source.

How the values were obtained:
Dandelion = test: Weed spectrum, greenhouse pot test; assay type: in vivo; details: two weeks after application
Bentgrass = test: Turf grass selectivity, greenhouse pot test; assay type: in vivo, Agrostris palustris
Description: Turf mats of Zoysia grass, bentgrass, Kentucky bluegrass, or perennial rye grass known as cool season turfgrass or western grass were purchased and cut into a piece having 10 cm×20 cm size. Then, each piece was transplanted in a rectangular plastic pot (surface area of 300 cm^2) in which sandy loam and mixed top soil (Boo-Nong Top Soil No. 3, for horticultural use) are filled in 1:1 ratio. After the transplantation, the grasses were cut once a week to maintain the blade height at 0.5-1.0 cm and cultivated for one month in a green house of which temperature was kept at 25˜30° C. for daytime and 15˜25° C. for nighttime, respectively. Then, the ‘test chemical’ of the above Examples 1 and 2 or ‘control chemical’ was applied thereto in an amount of 400, 200, 100, 50, 25, 12, 6, 3 g ai/ha. As a “control chemical”, pyrazolsulfuron ethyl wettable agent (manufactured by Dongbu Fine Chemicals; herein after, referred to as ‘control chemical No. 1’) and flazasulfuron (manufactured by Dongbu HiTek; herein after, referred to as ‘control chemical No. 2’), both sulfonylurea herbicides for a turf grass, were used. Application was carried out by using a track sprayer (R&D Sprayer, USA) equipped with Teejet 8002 nozzle (Spraying Systems Co., USA), and the application amount was adjusted to 2,000 L/ha, which is a typical application amount for a golf course in Korea. Application solution was prepared by diluting the “test chemical” or the “control chemical” with tap water. […] The test was repeated three times in a random arrangement and the results are given in average value of each test (see Table 2 below).

cool season turfgrass = test: Turf grass selectivity, summary for cool season turfgrass; assay type: in vivo; details: application amount as low as 3 g ai/ha
Description: Turf mats of Zoysia grass, bentgrass, Kentucky bluegrass, or perennial rye grass known as cool season turfgrass or western grass were purchased and cut into a piece having 10 cm×20 cm size. Then, each piece was transplanted in a rectangular plastic pot (surface area of 300 cm^2) in which sandy loam and mixed top soil (Boo-Nong Top Soil No. 3, for horticultural use) are filled in 1:1 ratio. After the transplantation, the grasses were cut once a week to maintain the blade height at 0.5-1.0 cm and cultivated for one month in a green house of which temperature was kept at 25˜30° C. for daytime and 15˜25° C. for nighttime, respectively. Then, the ‘test chemical’ of the above Examples 1 and 2 or ‘control chemical’ was applied thereto in an amount of 400, 200, 100, 50, 25, 12, 6, 3 g ai/ha. As a “control chemical”, pyrazolsulfuron ethyl wettable agent (manufactured by Dongbu Fine Chemicals; herein after, referred to as ‘control chemical No. 1’) and flazasulfuron (manufactured by Dongbu HiTek; herein after, referred to as ‘control chemical No. 2’), both sulfonylurea herbicides for a turf grass, were used. Application was carried out by using a track sprayer (R&D Sprayer, USA) equipped with Teejet 8002 nozzle (Spraying Systems Co., USA), and the application amount was adjusted to 2,000 L/ha, which is a typical application amount for a golf course in Korea. […]

cool season turf grass = details: background statement; creeping bentgrass, Kentucky bluegrass; cited from earlier work
Viola arvensis = test: Actual field condition test of Example 2 (turf grass field); assay type: in vivo; details: 50 g ai/ha
Method: The test chemical of the Example 2 was applied to a turf grass field, in which Viola arvensis as a representative hard-to-control perennial weed is thriving predominantly, to evaluate a weed control effect of the compound. The experiment was carried out from May to June, 2007 in the turf grass field within Korea Research Institute of Bioscience and Biotechnology (52, Ueun-dong, Yusong-gu, Daejon, South Korea). Fourteen days after the chemical application, the turf grass was cut once.

warm season turf grass = details: background statement; zoysiagrass, Burmudagrass; cited from earlier work
Perennial rye grass = test: Turf grass selectivity, greenhouse pot test; assay type: in vivo
Method in brief: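 Turf mats transplanted to pots of sandy loam/top soil (1:1), mown weekly to 0.5-1.0 cm and grown one month in greenhouse (25˜30° C. day, 15˜25° C. night). Test chemicals sprayed at 400, 200, 100, 50, 25, 12, 6, 3 g ai/ha in 2,000 L/ha tap-water dilution; three replicates, randomised, averaged.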

## COc1cc(OC)nc(NC(=O)NS(=O)(=O)c2ncccc2C(F)(F)F)n1 [Control chemical No. 2, Flazasulfuron, reference compound]
Dandelion; Post-emergence, 12 g ai/ha
  efficacy (0-100 scale): 10
Dandelion; Post-emergence, 25 g ai/ha
  efficacy (0-100 scale): 30
Dandelion; Post-emergence, 50 g ai/ha
  efficacy (0-100 scale): 40
Dandelion; Post-emergence, 100 g ai/ha
  efficacy (0-100 scale): 50
Dandelion; Pre-emergence, 12 g ai/ha
  efficacy (0-100 scale): 30
Dandelion; Pre-emergence, 25 g ai/ha
  efficacy (0-100 scale): 40
Dandelion; Pre-emergence, 50 g ai/ha
  efficacy (0-100 scale): 50
Dandelion; Pre-emergence, 100 g ai/ha
  efficacy (0-100 scale): 70
Bentgrass; 3 g ai/ha, 2 weeks
  phytotoxicity (visual assessment 0-10): 10
Bentgrass; 3 g ai/ha, 4 weeks
  phytotoxicity (visual assessment 0-10): 10
Bentgrass; 6 g ai/ha, 2 weeks
  phytotoxicity (visual assessment 0-10): 10
Bentgrass; 6 g ai/ha, 4 weeks
  phytotoxicity (visual assessment 0-10): 10
Bentgrass; 12 g ai/ha, 2 weeks
  phytotoxicity (visual assessment 0-10): 10
Bentgrass; 12 g ai/ha, 4 weeks
  phytotoxicity (visual assessment 0-10): 10
Bentgrass; 25 g ai/ha, 2 weeks
  phytotoxicity (visual assessment 0-10): 10
Bentgrass; 25 g ai/ha, 4 weeks
  phytotoxicity (visual assessment 0-10): 10
Bentgrass; 50 g ai/ha, 2 weeks
  phytotoxicity (visual assessment 0-10): 10
Bentgrass; 50 g ai/ha, 4 weeks
  phytotoxicity (visual assessment 0-10): 10
Bentgrass; 100 g ai/ha, 2 weeks
  phytotoxicity (visual assessment 0-10): 10
Bentgrass; 100 g ai/ha, 4 weeks
  phytotoxicity (visual assessment 0-10): 10
Bentgrass; 200 g ai/ha, 2 weeks
  phytotoxicity (visual assessment 0-10): 10
Bentgrass; 200 g ai/ha, 4 weeks
  phytotoxicity (visual assessment 0-10): 10
Bentgrass; 400 g ai/ha, 2 weeks
  phytotoxicity (visual assessment 0-10): 10
Bentgrass; 400 g ai/ha, 4 weeks
  phytotoxicity (visual assessment 0-10): 10
Cool season turfgrass
  phytotoxicity to cool season turfgrass: complete withering; also recorded: completely withered
Cool season turf grass
  safety to cool season turf grass: no safety
Viola arvensis; After 7 days
  Effect on Viola arvensis: 20
Viola arvensis; After 14 days
  Effect on Viola arvensis: 50
Warm season turf grass
  safety to warm season turf grass: have a safety
Perennial rye grass; 3 g ai/ha, 2 weeks
  phytotoxicity (visual assessment 0-10): 10
Perennial rye grass; 3 g ai/ha, 4 weeks
  phytotoxicity (visual assessment 0-10): 10
Perennial rye grass; 6 g ai/ha, 2 weeks
  phytotoxicity (visual assessment 0-10): 10
Perennial rye grass; 6 g ai/ha, 4 weeks
  phytotoxicity (visual assessment 0-10): 10
Perennial rye grass; 12 g ai/ha, 2 weeks
  phytotoxicity (visual assessment 0-10): 10
Perennial rye grass; 12 g ai/ha, 4 weeks
  phytotoxicity (visual assessment 0-10): 10
Perennial rye grass; 25 g ai/ha, 2 weeks
  phytotoxicity (visual assessment 0-10): 10
Perennial rye grass; 25 g ai/ha, 4 weeks
  phytotoxicity (visual assessment 0-10): 10
Perennial rye grass; 50 g ai/ha, 2 weeks
  phytotoxicity (visual assessment 0-10): 10
Perennial rye grass; 50 g ai/ha, 4 weeks
  phytotoxicity (visual assessment 0-10): 10
Perennial rye grass; 100 g ai/ha, 2 weeks
  phytotoxicity (visual assessment 0-10): 10
Perennial rye grass; 100 g ai/ha, 4 weeks
  phytotoxicity (visual assessment 0-10): 10
Perennial rye grass; 200 g ai/ha, 2 weeks
  phytotoxicity (visual assessment 0-10): 10
Perennial rye grass; 200 g ai/ha, 4 weeks
  phytotoxicity (visual assessment 0-10): 10
Perennial rye grass; 400 g ai/ha, 2 weeks
  phytotoxicity (visual assessment 0-10): 10
Perennial rye grass; 400 g ai/ha, 4 weeks
  phytotoxicity (visual assessment 0-10): 10
